Test results as given in patent US20240002387A1, “METHOD FOR PREPARING BTK DEGRADING AGENT” (HAISCO PHARMACEUTICALS PTE. LTD., priority 2020, published 2024).

How the values were obtained:
[1] = target: BTK C481S (Homo sapiens (Human), UniProt Q06187, C481S); test: In vitro kinase detection, BTK C481S; type: biochemical
Experimental: (§1) Kinases BTK wt (Carna, Cat. No. 08-180) and BTK C481S (Cama, Cat. No. 08-547) were prepared into a 2.5× kinase solution, and the substrates FAM-P2 (GL Biochem, Cat. No. 112394) and ATP (Sigma, Cat. No. A7699-1G) were prepared into a 2.5× substrate solution, respectively. 5 μL of compounds at different concentrations were added to a 384-well plate. 10 μl of 2.5× kinase solution was added, and the resulting mixture was incubated at room temperature for 10 min. 10 μL of 2.5× substrate solution was added, and the mixture was incubated at 28° C. for an appropriate period of time. The reaction was stopped by adding 30 μL of stop buffer, and the detection was carried out by using Caliper EZ reader2. The IC50 value was calculated by using XLFit excel add-in version 5.4.0.8 software. The calculation formula of the inhibition rate was shown in formula (3), wherein max denoted the readout of the DMSO control, min denoted the readout of the negative control, and conversion denoted the readout of the compound

[2] = target: BTK (Homo sapiens (Human), UniProt Q06187); test: Detection of BTK degradation in Mino cells; type: cell-based
Experimental: Mino human mantle cell lymphoma cell line was purchased from ATCC and cultured under the following conditions: RPMI-1640+15% FBS+1% double antibody in a 37° C., 5% CO2 incubator. Cells were plated in a 6-well plate, with 5×10^5 cells/well. After plating, the compounds at different concentrations were added and cultured in an incubator at 37° C. under 5% CO2 for 48 hours. After culturing, the cells were collected, and RIPA lysis buffer (Beyotime, Cat. P0013B) was added. The cells were lysed on ice for 15 minutes and centrifuged at 12000 rpm at 4° C. for 10 minutes. The protein sample of the supernatant was collected, and the protein was quantified by using the BCA kit (Beyotime, Cat. P0009), and then the protein was diluted to 0.25 mg/mL. The expressions of BTK (CST, Cat. 8547S) and the internal reference (3-actin (CST, Cat. 3700S) were detected using a fully automated western blot quantitative analyzer (Proteinsimple) with a kit (Protein simple, Cat. SM-W004). The expression level of BTK relative to the internal reference was calculated using Compass software, and the DC50 value was calculated using Origen9.2 software according to formula (1). Specifically, the BTK administration denoted the expression level of BTK in administration groups at different doses, and the BTK vehicle denoted the expression level of BTK in the vehicle control group. […]

[3] = target: BTK wt (Homo sapiens (Human), UniProt Q06187); test: In vitro kinase detection, BTK wt; type: biochemical
Experimental: as §1

[4] = target: BTK (Mus musculus (Mouse), UniProt P35991); test: Detection of BTK protein degradation in spleen of mice; type: in vivo
Experimental: Female ICR mice, 6-8 weeks old, were purchased from BEIJING VITAL RIVER LABORATORY ANIMAL TECHNOLOGY CO., LTD., and the experiment was started after 3 days of acclimatization. After intragastric administration of different doses of the compound for 3 consecutive days, the spleen of mice was taken, the spleen cells were collected, and RIPA lysis buffer (Beyotime, Cat. P0013B) was added. The cells were lysed on ice for 15 minutes and centrifuged at 12000 rpm at 4° C. for 10 minutes. The protein sample of the supernatant was collected, the protein was quantified by using the BCA kit (Beyotime, Cat. P0009), and then the protein was diluted to 0.25 mg/mL. The expressions of BTK (CST, Cat. 8547S) and the internal reference (3-actin (CST, Cat. 3700S) were detected using a fully automated western blot quantitative analyzer (Proteinsimple). The expression level of BTK relative to the internal reference was calculated using Compass software, and the DD50 value was calculated using Origen9.2 software according to formula (2). Specifically, the BTKadministration denoted the expression level of BTK in administration groups at different doses, and the BTKvehicle denoted the expression level of BTK in the vehicle control group.
BTK %=BTKadministration/BTKvehicle×100 formula (2)

Chain of BTK (Homo sapiens (Human), UniProt Q06187) (Q06187 whole entry): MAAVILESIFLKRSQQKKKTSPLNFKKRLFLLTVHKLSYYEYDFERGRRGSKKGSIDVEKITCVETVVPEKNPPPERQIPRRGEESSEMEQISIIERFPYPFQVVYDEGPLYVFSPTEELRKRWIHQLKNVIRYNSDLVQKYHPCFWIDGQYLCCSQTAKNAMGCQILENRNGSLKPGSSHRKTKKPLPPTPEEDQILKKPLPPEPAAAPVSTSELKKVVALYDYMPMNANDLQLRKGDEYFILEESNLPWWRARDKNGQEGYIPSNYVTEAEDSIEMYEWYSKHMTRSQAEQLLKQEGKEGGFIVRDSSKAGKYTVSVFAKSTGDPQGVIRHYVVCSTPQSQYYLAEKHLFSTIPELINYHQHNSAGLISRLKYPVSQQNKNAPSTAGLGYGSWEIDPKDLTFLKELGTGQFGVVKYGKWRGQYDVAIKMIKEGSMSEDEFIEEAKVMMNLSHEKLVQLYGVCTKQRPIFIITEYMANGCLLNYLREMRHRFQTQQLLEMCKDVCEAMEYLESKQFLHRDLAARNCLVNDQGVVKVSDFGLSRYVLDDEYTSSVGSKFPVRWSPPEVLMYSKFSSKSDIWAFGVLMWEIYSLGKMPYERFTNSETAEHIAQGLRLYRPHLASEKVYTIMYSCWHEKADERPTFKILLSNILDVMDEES
Chain of BTK wt (Q06187 whole entry): as above
Chain of BTK C481S (Q06187 whole entry C481S): as the sequence (Q06187 whole entry) above, with C481S counted along it
Chain of BTK (Mus musculus (Mouse), UniProt P35991) (P35991 whole entry): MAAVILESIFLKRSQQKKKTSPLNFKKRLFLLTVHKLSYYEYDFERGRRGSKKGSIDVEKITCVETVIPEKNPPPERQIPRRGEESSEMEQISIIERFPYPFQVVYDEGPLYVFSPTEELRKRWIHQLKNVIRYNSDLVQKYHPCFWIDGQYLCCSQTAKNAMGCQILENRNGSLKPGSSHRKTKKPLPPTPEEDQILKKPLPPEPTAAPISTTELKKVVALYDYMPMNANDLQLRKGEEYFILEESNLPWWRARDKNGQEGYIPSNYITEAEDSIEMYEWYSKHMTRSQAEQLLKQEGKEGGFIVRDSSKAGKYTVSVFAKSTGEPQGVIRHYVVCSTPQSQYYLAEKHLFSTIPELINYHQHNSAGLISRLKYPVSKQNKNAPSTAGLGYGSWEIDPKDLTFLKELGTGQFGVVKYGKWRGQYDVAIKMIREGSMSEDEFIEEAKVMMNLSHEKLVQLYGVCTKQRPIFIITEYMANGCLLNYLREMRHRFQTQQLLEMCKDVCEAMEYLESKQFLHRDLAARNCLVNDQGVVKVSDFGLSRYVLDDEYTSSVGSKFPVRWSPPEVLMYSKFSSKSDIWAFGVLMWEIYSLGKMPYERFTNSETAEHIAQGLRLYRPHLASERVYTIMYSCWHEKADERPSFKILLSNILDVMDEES

IC50 [1]: 8 nM
inhibitory effect on BTK C481S kinase (conclusion) [1]: significant inhibitory effect
degradation effect on BTK in Mino cells (conclusion) [2]: significant degradation effect
DC50 ([2]; 48 hours, western blot): 10.9 nM
IC50 [3]: 6.3 nM
inhibitory effect on BTK wt kinase (conclusion) [3]: significant inhibitory effect
degradation effect on BTK proteins in spleen of mice (conclusion) [4]: significant degradation effect
Compound: Nc1ncnc2c1c(-c1ccc(Oc3ccccc3)cc1)nn2C1CCN(C2CN(C3CN(c4ccc5c(c4)C(=O)N(C4CCC(=O)NC4=O)C5=O)C3)C2)CC1 (stereo not shown) [Compound 1, 5-[3-[3-[4-[4-amino-3-(4-phenoxyphenyl]pyrazolo[3,4-d]pyrimidin-1-yl]-1-piperidyl]azetidin-1-yl]azetidin-1-yl]-2-(2,6-dioxo-3-piperidyl)isoindoline-1,3-dione]
